In ChEMBL document CHEMBL5303304, “EUbOPEN Chemogenomics Library - IncuCyte” (2023):

Assays:
Assay type in all cases: toxicity, cell-based
U2OS = test: Incucyte cell viability with U2OS; details: human, 10 µM, compound concentration 10 uM
HEK-293T = test: Incucyte cell viability with HEK293T; details: human, 10 µM, compound concentration 10 uM
Fibroblast = test: Incucyte cell viability with human fibroblast; details: 10 µM, compound concentration 10 uM
Further: unitless GR value; below 1 slowed growth and below 0 cell loss.

SMILES	Growth Rate (U2OS; 6 h, replicate number 1)	Growth Rate (U2OS; 12 h, replicate number 2)	Growth Rate (HEK-293T; 0 h, replicate number 1)	Growth Rate (HEK-293T; 0 h, replicate number 2)	Growth Rate (Fibroblast; 0 h, replicate number 2)	Growth Rate (Fibroblast; 6 h, replicate number 2)	Growth Rate (Fibroblast; 18 h, replicate number 2)	Growth Rate (Fibroblast; 24 h, replicate number 2)	Growth Rate (HEK-293T; 6 h, replicate number 2)	Growth Rate (U2OS; 6 h, replicate number 2)	Growth Rate (U2OS; 18 h, replicate number 2)	Growth Rate (HEK-293T; 6 h, replicate number 1)	Growth Rate (HEK-293T; 12 h, replicate number 1)	Growth Rate (HEK-293T; 18 h, replicate number 1)	Growth Rate (HEK-293T; 18 h, replicate number 2)	Growth Rate (HEK-293T; 24 h, replicate number 1)	Growth Rate (U2OS; 0 h, replicate number 2)	Growth Rate (U2OS; 24 h, replicate number 2)	Growth Rate (HEK-293T; 12 h, replicate number 2)	Growth Rate (Fibroblast; 0 h, replicate number 1)	also measured
Cc1cc(CN(CC(=O)Nc2ccc(Cl)cc2Cl)C2CCCCC2)ccc1OCC(=O)O	0.64	0.97	0.78	0.19	-0.93	0.35	0.88	0.87	–	–	–	–	–	–	–	–	–	–	–	–	Growth Rate (Fibroblast; 12 h, replicate number 2): 0.9
Cc1c(CCC(=O)O)cccc1NC(=O)[C@@H](c1ccc(-c2cncc(Cl)c2)c(F)c1)C1CCCC1	0.95	–	-0.19	-0.54	–	-0.66	0.9	0.87	0.98	–	–	–	–	–	–	–	–	–	–	–	Growth Rate (U2OS; 0 h, replicate number 1): 0.68; Growth Rate (U2OS; 12 h, replicate number 1): 0.73; Growth Rate (Fibroblast; 12 h, replicate number 2): 0.3
CCn1c(=O)c2c(C)c(C(=O)N3CCC(O)CC3)sc2n(CCC(F)(F)F)c1=O	–	0.97	0.93	0.32	0.25	–	–	0.97	–	0.72	0.97	0.41	0.79	0.74	0.86	0.83	–	–	–	–	–
O=C1Nc2nc(-c3c(O)cccc3OCC3CC3)cc([C@@H]3CCCNC3)c2CO1	–	0.47	0.88	-0.36	-0.79	–	–	–	0.83	0.44	0.79	0.72	0.62	0.78	–	0.93	-0.52	0.98	0.47	–	Growth Rate (U2OS; 24 h, replicate number 1): 0.83
O=C(NCCN1CCOCC1)c1ccc2nn(CCOc3ccc(Cl)cc3)cc2c1	0.71	0.88	0.54	0.3	-0.92	0.87	0.98	–	0.26	0.98	–	0.47	0.82	0.71	0.47	0.72	0.25	–	0.18	-1	Growth Rate (U2OS; 24 h, replicate number 1): 0.93; Growth Rate (HEK-293T; 24 h, replicate number 2): 0.61; Growth Rate (Fibroblast; 6 h, replicate number 1): 0.63; Growth Rate (Fibroblast; 12 h, replicate number 2): 0.78; Growth Rate (Fibroblast; 18 h, replicate number 1): 0.86; Growth Rate (Fibroblast; 24 h, replicate number 1): 0.92
O=C(O)CCCCN(CCc1cc(F)ccc1OCc1ccc(-c2ccc(C(F)(F)F)cc2)cc1)Cc1ccc(C(=O)O)cc1	0.61	0.87	0.09	-0.87	-0.98	–	–	–	–	0.58	0.85	–	–	–	–	–	-0.4	0.91	–	-1	Growth Rate (U2OS; 0 h, replicate number 1): 0.99; Growth Rate (Fibroblast; 6 h, replicate number 1): 0.59; Growth Rate (Fibroblast; 12 h, replicate number 1): 0.66; Growth Rate (Fibroblast; 18 h, replicate number 1): 0.85; Growth Rate (Fibroblast; 24 h, replicate number 1): 0.96
Cl.O=c1cc(C2CCNCC2)n2nc3cccc(Cl)c3c2[nH]1	0.98	1	-0.29	-0.61	-0.98	–	–	–	–	–	–	–	–	–	0.96	–	–	–	0.58	-0.94	Growth Rate (U2OS; 0 h, replicate number 1): 0.61; Growth Rate (U2OS; 18 h, replicate number 1): 0.98; Growth Rate (HEK-293T; 24 h, replicate number 2): 0.91
O=C(O)C[C@H]1CCn2c1c(Sc1ccc(Cl)cc1)c1ccc(F)cc12	–	–	0.01	-0.28	–	0.42	0.97	0.83	–	–	–	0.76	0.96	–	0.93	0.92	–	–	0.99	-1	Growth Rate (U2OS; 24 h, replicate number 1): 0.94; Growth Rate (HEK-293T; 24 h, replicate number 2): 0.78; Growth Rate (Fibroblast; 12 h, replicate number 2): 0.4; Growth Rate (Fibroblast; 24 h, replicate number 1): 0.89
Cc1nc2c(cc1F)c(-c1nnc3c(n1)NC(=O)C3(C)C)nn2Cc1cccc(F)c1F	0.9	0.84	0.61	0.48	0.67	–	–	–	0.57	0.58	0.95	0.97	0.95	0.75	0.8	0.79	0.99	–	0.74	-1	Growth Rate (HEK-293T; 24 h, replicate number 2): 0.91; Growth Rate (Fibroblast; 6 h, replicate number 1): 0.59; Growth Rate (Fibroblast; 18 h, replicate number 1): 0.85; Growth Rate (Fibroblast; 24 h, replicate number 1): 0.94
N#Cc1c(SCc2csc(-c3ccc(Cl)cc3)n2)nc(N2CCCC2)c(C#N)c1-c1ccc(OCCO)cc1	0.87	0.77	-0.68	-0.75	-1	–	–	–	–	0.8	0.93	–	–	–	–	–	0.14	0.97	–	–	–
Cc1cc(S(=O)(=O)N2CC(C)(C)c3cc(-c4ccc(C(F)(F)F)cc4)ccc32)ccc1OCC(=O)O	0.69	0.54	0.52	-0.17	-0.87	–	–	–	0.73	0.68	0.8	0.72	0.7	0.71	0.95	0.79	-0.69	0.98	0.81	-0.12	Growth Rate (Fibroblast; 6 h, replicate number 1): 0.92
Cc1nn(-c2ccccc2)c(Nc2ccccc2C(=O)O)c1-c1cc2nccnc2c(F)c1F	0.75	–	0.45	-0.55	-0.36	-0.17	0.57	0.79	–	–	–	–	–	–	–	–	–	–	–	–	Growth Rate (U2OS; 12 h, replicate number 1): 1; Growth Rate (Fibroblast; 6 h, replicate number 1): 0.39
C[C@]12CC[C@@H]3c4ccc(C(N)=O)cc4CC[C@H]3[C@@H]1CC=C2c1cncc(F)c1	–	0.79	-0.13	–	-0.92	–	–	–	-0.72	–	0.92	0.93	0.9	0.96	0.29	0.97	–	1	0.31	–	Growth Rate (U2OS; 0 h, replicate number 1): 0.64; Growth Rate (U2OS; 12 h, replicate number 1): 0.98; Growth Rate (HEK-293T; 24 h, replicate number 2): 0.4
